Consider five molecules from article PMC9919437 (Molecules, 2023).

Entries after “also recorded” stand apart in the source; their conditions may differ. Where only a bound is given, the exact number is not on record here.

One data set can be described thus: Water solubility. The class given is physicochemical. The conditions noted are these: fully soluble at least up to.
In the next data set the target is BC2L-C-Nt. Set-up: method as in PMID 36174276. Conditions: SPR, BC2L-C-Nt immobilized on CM5 chip; said not to correlate with ITC; read-out: apparent Kd; cited from earlier work. (In general: In SPR one partner is held on a chip, and binding of the other changes the refractive index at the surface.)
Details of data set [1]: method as in PMID 36174276. The conditions noted are these: cited from earlier work.
Data set [2] deals with the molecule itself. In words: crystal structure; hexagonal crystal form (P6_3), one protomer in the asymmetric unit, trimer by the 3-fold crystallographic symmetry; cocrystals with H-type 1 oligosaccharide soaked with 3 mM compound 3 in 2.47 M sodium malonate pH 7.0 for 48 h at 19 °C.

As usually defined, the solubility is the dissolved amount per volume that the medium holds. A higher solubility goes with a readily soluble substance. Turning to `C[C@@H]1O[C@H](NC(=O)c2ccc(-c3cccc(CN)c3)o2)[C@@H](O)[C@H](O)[C@@H]1O` [compound 3], in “Water solubility”, the solubility is at least 2000 µM. Turning to `C[C@@H]1O[C@H](NC(=O)c2ccc(-c3cccc(N)c3)o2)[C@@H](O)[C@H](O)[C@@H]1O` [compound 2], at BC2L-C-Nt, the Kd was 2400 µM. Besides, the “water solubility (in words)” value in data set [1] is given as “very low water solubility; also recorded: water-insoluble”. For `C[C@@H]1O[C@H](NC(=O)c2ccco2)[C@@H](O)[C@H](O)[C@@H]1O` [compound 17, Furan-2-carboxamido-β-L-fucopyranose], in “Water solubility”, the solubility is at least 2000 µM. Regarding `NCc1cccc(-c2ccc(C(=O)NC3OC(CO)C(O)C(O)C3O)o2)c1` (stereo not drawn) [compound 4], in the data set “Water solubility”, the solubility was at least 2000 µM.

B1: N-terminal domain of the lectin BC2L-C from Burkholderia cenocepacia (domain or fragment)
chain: MPLLSASIVSAPVVTSETYVDIPGLYLDVAKAGIRDGKLQVILNVPTPYATGNNFPGIYFAIATNQGVVADGCFTYSSKVPESTGRMPFTLVATIDVGSGVTFVKGQWKSVRGSAMHIDSYASLSAIWGTAA
notes: also called BC2L-C-Nt; BC2L-C N-terminal domain; not shown: expression tag, N-terminal, cleaved
A word on the stoichiometry N: it is a count of units in the complex or per binding partner. On to B1, for which the “stoichiometry N” value in data set [2] came to 3.
